Experimental data published in patent publication US20250283058A1, “USE OF p55-GAMMA GENE AND/OR p55-GAMMA PROTEIN AS TARGET IN MAINTAINING CARDIAC IRON HOMEOSTASIS AND TREATING RELATED DISEASE” (BEIJING FRIENDSHIP HOSPITAL, CAPITAL MEDICAL UNIVERSITY, priority 2024, published 2025).
Where a SMILES comes first, the peptide text is derived from it. The star is where a group is joined. Cbz = O=C(OCc1ccccc1)*

Experiments:
p55γ gene = p55γ gene mRNA and protein levels in cardiomyocytes treated with ferroptosis inducers (qPCR, Western blot); type: cell-based; details: NRVMs treated with ferroptosis inducer vs vehicle group
Description: The cultured cardiomyocytes were divided into: an erastin group and a vehicle group, where the NRVMs were treated with erastin in the erastin group, while the cardiomyocytes in the vehicle group were not treated in any way. The mRNA and protein levels of p55γ gene in the two groups of cardiomyocytes were detected by conventional quantitative polymerase chain reaction (qPCR) and Western blot methods.
The mRNA and protein levels of p55γ gene in the two groups of cardiomyocytes were detected by conventional qPCR and Western blot methods.

IRP2 = IRP2 mRNA and protein levels in cardiomyocytes (qPCR, Western blot); type: cell-based; details: Ad-p55γ-infected cardiomyocytes treated with MG132
Description: To elucidate whether the p55γ gene could regulate the mRNA stability of Tfr1through the IRPs-IRE system, the expression of IRP2 in NRVMs was evaluated. Ad-p55γ was used to infect cardiomyocytes, and qPCR and Western blot were conducted to detect Ad-p55γ-infected cardiomyocytes for 48 h.
Ad-p55γ-infected cardiomyocytes were treated with MG132. […] In order to further study whether p55γ could promote the ubiquitination and degradation of IRP2, the target gene sequences of p55γ, IRP2, and UB were found in NCBI. A pcDNA3.1(+) vector was used, sequence analysis software was used to find the restriction endonuclease cleavage sites present in the target gene sequences, and plasmids for p55γ, IRP2, and […] were constructed. The plasmids were separately transfected into HEK293T cells, which were collected 24 h later and IRP2 ubiquitination was detected. Western blot was conducted to detect the ubiquitination level of IRP2.

[1] = system: I/R injury-induced cardiac ferroptosis; assay: I/R injury model in mice with ferroptosis inhibitors (TTC staining, serum LDH, MDA); type: in vivo; details: for cardiac MDA content / serum LDH concentration: mice after I/R injury; for cardiac MDA content: compared with WT mice; for serum LDH concentration / I/R-induced myocardial infarct size: effect comparable to p55γ^h-TG mice; for I/R-induced myocardial infarct size: mice, TTC staining
Description: p55γ transgenic (p55γ^h-TG) mice were established according to routine methods in the art. Male wild-type (WT) C57 mice and p55γ^h-TG mice aged 8 to 12 weeks were selected to set up a sham operation control group and experimental groups, respectively, to construct I/R injury models. TTC staining, MDA detection, and oxidized lipid detection were conducted according to conventional methods in the art. To determine whether p55γ protein could inhibit I/R injury-induced cardiac ferroptosis, the experiments were carried out with the following groups: mice treated with saline, mice treated with Ferrostatin-1 (Fer-1) and Dexrazoxane (DXZ), and p55γ^h-TG mice. The cardiac infarction area of mice was detected by conventional TTC staining and the serum LDH concentration was assayed by LDH release kits. […] In addition, lipid peroxidation in the hearts of mice in each group was detected by intracellular MDA content assay. […] Given that the peroxidation of polyunsaturated fatty acids (PUFAs) is an important step in ferroptosis, and in order to further clarify the role of p55γ gene in ferroptosis, oxidized lipid substances in the hearts of mice from the […] group and WT-I/R group were measured using liquid chromatography-tandem mass spectrometry (LC-MS/MS).

cardiomyocytes (NRVMs) = assay: H/R injury model in cardiomyocytes with perhexiline; type: cell-based
Description: (§1) In view of the importance of p55γ in combating ferroptosis, it is particularly important to find potential activators of p55γ for the treatment of I/R injury. Therefore, potential activators of p55γ were predicted using existing small molecule drug libraries. Subsequently, molecular docking analysis was conducted based on the crystal structure of p55γ. […] To determine the potential role of perhexiline in cardiomyocyte ferroptosis, experiments were first done in cardiomyocytes. […] The effect of perhexiline was further tested in the context of H/R injury model.

Tfr1 and IRP2 = assay: Western blot of Tfr1 and IRP2 after perhexiline treatment of cardiomyocytes; type: cell-based; details: 24 h treatment
Description: as §1

[2] = system: I/R injury-induced cardiac ferroptosis; assay: I/R injury model in mice pretreated with perhexiline (TTC staining, MDA); type: in vivo; details: intraperitoneal injection 24 h and 2 h before I/R
Description: p55γ knockout (p55γ^−/−) mice were established according to routine methods in the art. Male wild-type (WT) C57 mice and p55γ^−/− mice aged 8 to 12 weeks were selected to set up a sham operation control group and experimental groups, respectively, and the mice were intraperitoneally injected with perhexiline 24 h and 2 h before constructing the I/R injury model. TTC staining and MDA detection were conducted according to conventional methods in the art.

[3] = cardiomyocytes, H/R injury model
[4] = with overexpression of IRP2 (IRP2 adenovirus)

## COC(=O)c1ccc([C@@H]2c3[nH]c4ccccc4c3C[C@@H](C(=O)OC)N2C(=O)CCl)cc1 [RSL3]
p55γ gene; Western blot
  protein level of p55γ gene: down-regulated
p55γ gene; qPCR
  mRNA level of p55γ gene: down-regulated

## CC(C)C[C@@H](C=O)NC(=O)[C@H](CC(C)C)NC(=O)[C@H](CC(C)C)NC(=O)OCc1ccccc1 [MG132] (Cbz-Leu-Leu-Leu-aldehyde)
IRP2
  p55γ-mediated decrease in IRP2 protein: effectively eliminated

## C[C@@H](CN1CC(=O)NC(=O)C1)N1CC(=O)NC(=O)C1 [DXZ, Dexrazoxane]
[1]
  cardiac MDA content: significantly reduced
  serum LDH concentration: reduced
  I/R-induced myocardial infarct size: reduced

## C1CCC(C(CC2CCCCN2)C2CCCCC2)CC1 (stereo not shown) [perhexiline]
Cardiomyocytes (NRVMs); [3]
  decrease in cell activity induced by H/R injury: significantly blocked
  increase in ptgs2 mRNA levels induced by H/R injury: significantly blocked
Cardiomyocytes (NRVMs); [4]
  inhibitory effect on H/R induced decrease in cell activity: could block the inhibitory effect
  inhibitory effect on H/R induced increase in ptgs2 mRNA levels: could block the inhibitory effect
Tfr1 and IRP2
  protein level of IRP2: significantly down-regulated
  protein level of Tfr1: significantly down-regulated
[2]; WT mice
  level of MDA in the heart: reduce
[2]; WT mice, TTC staining
  myocardial infarct size: significantly reduce
[2]; p55γ^−/− mice
  cardioprotective effect (level of MDA in the heart): abolished
  cardioprotective effect (myocardial infarct size): abolished

## CCOC(=O)c1ccc(NC2CCCCC2)c(N)c1 [Fer-1, Ferrostatin-1]
[1]
  cardiac MDA content: significantly reduced
  serum LDH concentration: reduced
  I/R-induced myocardial infarct size: reduced
